Reference: patent publication US20060004012A1, “Compounds, pharmaceutical compositions and methods for use in treating metabolic disorders” (priority 2004, published 2006)

Target: T1, human GPR40 (Homo sapiens, UniProt O14842)
T1 construct: expressed in transfected cells; host or cells: CHO cells, transiently transfected with Lipofectamine 2000 and co-transfected with an aequorin expression vector (Euroscreen)
Assay: Cell-based aequorin assay using human GPR40
Conditions: activation of human GPR40; CHO cells transfected with GPR40 and aequorin expression vectors; aequorin luminescence, area-under-curve 2-20 seconds; read-out: Relative EC50
Protocol: A cell-based aequorin assay may be employed to characterize the modulatory activity of compounds on the GPR40 signaling pathway. In an exemplary assay, CHO cells are transfected in a 15 cm plated containing 14 million cells with 5 μg of GPR40 expression vector and 5 μg of Aequorin expression vector (Euroscreen) using Lipofectamine 2000 (Invitrogen). After 17-24 hours post-transfection, cells are washed with phosphate buffered saline (PBS) and detached from the tissue culture dish with 2 mL of trypsin (0.25%(w/v)). Trypsinization is halted with 28 mL of Hanks Buffered Salt Solution containing 20 mM Hepes (H/HBSS) and 0.01% fatty acid-free bovine serum albumin (BSA) or 0.625% fatty acid-free human serum albumin (HSA). Coelantrazine is added to 1 ug/mL and the cells are incubated for 2 hours at room temperature. Cells are gently mixed every 15 minutes. Compounds are dissolved in dimethyl sulfoxide for preparation of 10 mM stock solutions. Compounds are diluted in H/HBSS containing either 0.01% BSA or 0.625% HSA. Serial dilutions of the test compounds are prepared to determine dose response.
Aequorin luminescence measurements are made using an EG&G Berthold 96-well luminometer and the response is measured over a 20 second interval after cells and compounds were mixed. The area-under-curve from 2-20 seconds is plotted to determine dose reponse. The EC50 (effective concentration to reach 50% maximal response) is determined from the dose response plot. […]

T1 sequence (O14842 whole entry): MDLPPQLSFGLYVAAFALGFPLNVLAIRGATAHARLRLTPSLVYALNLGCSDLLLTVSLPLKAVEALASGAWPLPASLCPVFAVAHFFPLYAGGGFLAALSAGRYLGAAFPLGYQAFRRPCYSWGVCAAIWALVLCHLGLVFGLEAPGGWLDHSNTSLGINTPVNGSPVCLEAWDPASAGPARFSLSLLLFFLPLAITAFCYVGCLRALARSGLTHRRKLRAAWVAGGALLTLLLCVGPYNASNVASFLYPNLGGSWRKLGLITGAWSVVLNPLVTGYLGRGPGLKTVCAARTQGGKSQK

| SMILES | EC50 [nM] |
| --- | --- |
| CC#CC(CC(=O)O)c1ccc(OCc2ccc(OC)cc2)cc1 (racemic) [Compound 12, (±)-3-(4-[(4-methoxyphenyl)methoxy]phenyl)-hex-4-ynoic acid] | 100 to 1000 |
| CC#C[C@@H](CC(=O)O)c1ccc(OCc2sc(-c3ccc(C)cc3)nc2C)cc1 [Compound 3, (S)-3-[4-(4-Methyl-2-p-tolyl-thiazol-5-ylmethoxy)-phenyl]-hex-4-ynoic acid] | < 10 |
| CC#C[C@@H](CC(=O)O)c1ccc(OCc2cc(-c3ccccc3)oc2C)cc1 [Compound 5, 3-[4-(2-Methyl-5-phenyl-furan-3-ylmethoxy)-phenyl]-hex-4-ynoic acid] | 10 to 100 |
| CC#CC(CC(=O)O)c1ccc(OCc2cccc(-c3ccccc3)c2)cc1 (centres unmarked) [Compound 6.1] | 10 to 100 |
| CC#CC(CC(=O)O)c1ccc(OCc2cccc(-c3ccccc3OCC)c2)cc1 (centres unmarked) [Compound 6.2] | 10 to 100 |
| CC#CC(CC(=O)O)c1ccc(OCc2cccc(-c3ccc(OCC)cc3)c2)cc1 (centres unmarked) [Compound 6.3] | 10 to 100 |
| CC#CC(CC(=O)O)c1ccc(OCc2cccc(-c3ccc(C#N)cc3)c2)cc1 (centres unmarked) [Compound 6.7] | 10 to 100 |
| CC#CC(CC(=O)O)c1ccc(OCc2cccc(-c3ccccc3C(F)(F)F)c2)cc1 (centres unmarked) [Compound 6.8] | 10 to 100 |
| CC#CC(CC(=O)O)c1ccc(OCc2cccc(-c3cccc(C(F)(F)F)c3)c2)cc1 (centres unmarked) [Compound 6.9] | 10 to 100 |
| CC#CC(CC(=O)O)c1ccc(OCc2ccc(-c3ccccc3)cc2)cc1 (centres unmarked) [Compound 7.3] | 1000 to 10000 |
| CC#CC(CC(=O)O)c1ccc(OCc2ccc(-c3ccccc3OCC)cc2)cc1 (centres unmarked) [Compound 7.5] | 10 to 100 |
| CC#CC(CC(=O)O)c1ccc(OCc2ccc(-c3cccc(OCC)c3)cc2)cc1 (centres unmarked) [Compound 7.8] | 100 to 1000 |
| CC#CC(CC(=O)O)c1ccc(OCc2ccc(-c3ccc(OCC)cc3)cc2)cc1 (centres unmarked) [Compound 7.9] | 100 to 1000 |
| CC#CC(CC(=O)O)c1ccc(OCc2ccc(-c3ccc(C(F)(F)F)cc3)cc2)cc1 (centres unmarked) [Compound 7.10] | 100 to 1000 |
| CC#CC(CC(=O)O)c1ccc(OCc2ccc(-c3ccc(C#N)cc3)cc2)cc1 (centres unmarked) [Compound 7.15] | 10 to 100 |
| CC#CC(CC(=O)O)c1ccc(OCc2csc(-c3ccc(C(F)(F)F)cc3)n2)cc1 (centres unmarked) [Compound 8.1] | 10 to 100 |
| CC#CC(CC(=O)O)c1ccc(OCc2csc(-c3ccccc3)n2)cc1 (centres unmarked) [Compound 8.2] | 10 to 100 |
| CC#CC(CC(=O)O)c1ccc(OCc2csc(-c3ccc(Cl)cc3)n2)cc1 (centres unmarked) [Compound 8.3] | 10 to 100 |
| CC#CC(CC(=O)O)c1ccc(OCc2csc(-c3ccc(OC)cc3)n2)cc1 (centres unmarked) [Compound 8.4] | 10 to 100 |
| CC#CC(CC(=O)O)c1ccc(OCc2csc(-c3ccc(C)cc3)n2)cc1 (centres unmarked) [Compound 8.5] | 10 to 100 |
| CC#CC(CC(=O)O)c1ccc(OCc2csc(-c3ccc(OC)c(OC)c3)n2)cc1 (centres unmarked) [Compound 8.6] | 100 to 1000 |

| SMILES | EC50 [nM] |
| --- | --- |
| CC#CC(CC(=O)O)c1ccc(OCc2sc(-c3ccc(C(F)(F)F)cc3)nc2C)cc1 (centres unmarked) [Compound 9.1] | 10 to 100 |
| CC#CC(CC(=O)O)c1ccc(OCc2sc(-c3ccc(C)cc3)nc2C)cc1 (centres unmarked) [Compound 9.2] | < 10 |
| CC#CC(CC(=O)O)c1ccc(OCc2sc(-c3ccccc3)nc2C)cc1 (centres unmarked) [Compound 9.3] | 10 to 100 |
| CC#CC(CC(=O)O)c1ccc(OCc2sc(-c3ccc(OC)c(OC)c3)nc2C)cc1 (centres unmarked) [Compound 9.4] | 10 to 100 |
| CC#CC(CC(=O)O)c1ccc(OCc2cccc(N(CC)c3ccccc3)c2)cc1 (centres unmarked) [Compound 10.2] | 10 to 100 |
| CC#CC(CC(=O)O)c1ccc(OCc2cccc(Oc3ccccc3)c2)cc1 (centres unmarked) [Compound 10.3] | 10 to 100 |
| CC#CC(CC(=O)O)c1ccc(OCc2ccc(-c3ccccn3)cc2)cc1 (centres unmarked) [Compound 10.4] | 10 to 100 |
| CC#CC(CC(=O)O)c1ccc(OCc2ccc(S(=O)(=O)c3ccccc3)cc2)cc1 (centres unmarked) [Compound 10.5] | 100 to 1000 |
| CC#CC(CC(=O)O)c1ccc(OCc2ccc(Cc3ccccc3)cc2)cc1 (centres unmarked) [Compound 10.6] | 10 to 100 |
| CC#CC(CC(=O)O)c1ccc(OCc2ccc(CCc3ccccc3)cc2)cc1 (centres unmarked) [Compound 10.7] | 100 to 1000 |
| CC#CC(CC(=O)O)c1ccc(OCc2cccc(-c3ccccn3)c2)cc1 (centres unmarked) [Compound 10.8] | 100 to 1000 |
| CC#CC(CC(=O)O)c1ccc(OCc2cccc(-c3cccnc3)c2)cc1 (centres unmarked) [Compound 10.9] | 100 to 1000 |
| CC#CC(CC(=O)O)c1ccc(OCc2cccc(-c3ccncc3)c2)cc1 (centres unmarked) [Compound 10.10] | 100 to 1000 |
| CC#CC(CC(=O)O)c1ccc(OCc2ccc(-c3cccnc3)cc2)cc1 (centres unmarked) [Compound 10.12] | 1000 to 10000 |
| CC#CC(CC(=O)O)c1ccc(OCc2ccc(-c3ccncc3)cc2)cc1 (centres unmarked) [Compound 10.13] | 100 to 1000 |
| CC#CC(CC(=O)O)c1ccc(OCc2cccc(-n3cccc3)c2)cc1 (centres unmarked) [Compound 10.14] | 10 to 100 |
| CC#CC(CC(=O)O)c1ccc(OCc2cnn(-c3ccc(F)cc3)c2C)cc1 (centres unmarked) [Compound 11.1] | 100 to 1000 |
| COc1ccc(COc2ccc(C(C#C[Si](C)(C)C)CC(=O)O)cc2)cc1 (centres unmarked) [Compound 14.1] | 1000 to 10000 |
| COc1ccc(COc2ccc(C(CC(=O)O)c3ccc(F)cc3)cc2)cc1 (centres unmarked) [Compound 14.2] | 100 to 1000 |
| CC(C)(C)OC(=O)N[C@@H](CC(=O)O)c1ccc(OCc2cccc(Oc3ccc(F)cc3)c2)cc1 [Compound 42.11, (S)-3-tert-Butoxycarbonylamino-3-{4-[3-(4-fluoro-phenoxy)-benzyloxy]-phenyl}-propionic acid] | 100 to 1000 |

Further lines, results first:

| EC50 [nM] | SMILES |
| --- | --- |
| 10 to 100 | CC#C[C@@H](CC(=O)O)c1ccc(OCc2ccccc2C)cc1 (single isomer, unassigned) [Compound 15] |
| 1000 to 10000 | Cc1ccc(C(CC(=O)O)c2ccc(OCc3cccc(Oc4ccccc4)c3)cc2)cc1 (single isomer, unassigned) [Compound 84.2] |
| 100 to 1000 | Cc1ccc(C(CC(=O)O)c2ccc(OCc3cccc(Oc4ccccc4)c3)cc2)cc1 (single isomer, unassigned) [Compound 84.3] |
| 100 to 1000 | CN(C)[C@@H](CC(=O)O)c1ccc(OCc2cccc(Oc3ccc(F)cc3)c2)cc1 (stereo in doubt) [Compound 42.14, 3-Dimethylamino-3-{4-[3-(4-fluoro-phenoxy)-benzyloxy]-phenyl}-propionic acid] |
| 1000 to 10000 | CCC(CC(=O)O)c1ccc(OCc2ccc(OC)cc2)cc1 (centres unmarked) [Compound 14.3] |
| > 10000 | COc1ccc(COc2ccc(C(C)CC(=O)O)cc2)cc1 (centres unmarked) [Compound 14.4] |
| 1000 to 10000 | COCC#CC(CC(=O)O)c1ccc(OCc2ccc(OC)cc2)cc1 (centres unmarked) [Compound 14.5] |
| 1000 to 10000 | COc1ccc(COc2ccc(C(C#Cc3ccccc3)CC(=O)O)cc2)cc1 (centres unmarked) [Compound 14.6] |
| 100 to 1000 | CC#CC(CC(=O)O)c1ccc(OCc2ccccc2C)cc1 (centres unmarked) [Compound 17.6] |
| 1000 to 10000 | CC#CC(CC(=O)O)c1ccc(OCCc2ccccc2)cc1 (centres unmarked) [Compound 17.8] |
| 10 to 100 | CC#CC(CC(=O)O)c1ccc(OCc2nc(-c3ccc(C(F)(F)F)cc3)oc2C)cc1 (centres unmarked) [Compound 18, 3-{4-[5-Methyl-2-(4-trifluoromethyl-phenyl)-oxazol-4-ylmethoxy]-phenyl}-hex-4-ynoic acid] |
| 1000 to 10000 | CC#CC(Cc1nnn[nH]1)c1ccc(OCc2ccccc2C)cc1 (centres unmarked) [Compound 23, 5-{2-[4-(2-Methyl-benzyloxy)-phenyl]-pent-3-ynyl}-1H-tetrazole] |
| 100 to 1000 | CC#CC(CC(=O)Nc1nccs1)c1ccc(OCc2ccc(OC)cc2)cc1 (centres unmarked) [Compound 24, 3-[4-(4-Methoxy-benzyloxy)-phenyl]-hex-4-ynoic acid thiazol-2-ylamide] |
| 1000 to 10000 | CC#CC(CC(=O)Nc1nnn[nH]1)c1ccc(OCc2ccc(OC)cc2)cc1 (centres unmarked) [Compound 25.1] |
| 10 to 100 | CC#CC(CC(=O)O)c1ccc(OCc2nn(-c3ccccc3)nc2C)cc1 (centres unmarked) [Compound 26, 3-[4-(5-Methyl-2-phenyl-2H-[1,2,3]triazol-4-ylmethoxy)-phenyl]-hex-4-ynoic acid] |
| 100 to 1000 | CC#CC(CC(=O)O)c1ccc(OCc2noc(-c3ccc(C(F)(F)F)cc3)n2)cc1 (centres unmarked) [Compound 27.1] |
| 100 to 1000 | CC#CC(CC(=O)O)c1ccc(SCc2ccccc2C)cc1 (centres unmarked) [Compound 28, 3-[4-(2-Methyl-benzylsulfanyl)-phenyl]-hex-4-ynoic acid] |
| 1000 to 10000 | C=CCC(CC(=O)O)c1ccc(OCc2ccc(OC)cc2)cc1 (centres unmarked) [Compound 34.4] |
| 100 to 1000 | COc1ccc(COc2ccc(C(C=C(C)C)CC(=O)O)cc2)cc1 (centres unmarked) [Compound 34.5] |
| 100 to 1000 | CC#CC(CC(=O)O)c1ccc(NCc2cccc(OC)c2)cc1 (centres unmarked) [Compound 36.1] |
| 100 to 1000 | CC#CC(CC(=O)O)c1ccc(N(Cc2cccc(OC)c2)Cc2cccc(OC)c2)cc1 (centres unmarked) [Compound 36.2] |
| 10 to 100 | CC#C[C@@H](CC(=O)O)c1ccc(OCc2ccc(OC)cc2)cc1 [Compound 39.7, (3S)-3-[4-(4-Methoxy-benzyloxy)-phenyl]-hex-4-ynoic acid] |
| 1000 to 10000 | CC#C[C@H](CC(=O)O)c1ccc(OCc2ccc(OC)cc2)cc1 [Compound 40.5, (3R)-3-[4-(4-Methoxy-benzyloxy)-phenyl]-hex-4-ynoic acid] |
| 100 to 1000 | C#CC(CC(=O)O)c1ccc(OCc2ccc(OC)cc2)cc1 (centres unmarked) [Compound 41] |
